Test results published in the NIST ThermoML archive (doi:10.1021/je900210h).

Settings: Fluid (supercritical or subcritical phases), Coaxial cylinder method

FCC(F)(F)F [1,1,1,2-tetrafluoroethane]
Settings	thermal conductivity [W/m/K]
375.18 K, 4340 kPa	0.055
375.18 K, 4942 kPa	0.0559
375.18 K, 5054 kPa	0.0557
375.18 K, 5057 kPa	0.055
375.19 K, 4163 kPa	0.0881
375.19 K, 4379 kPa	0.0546
375.19 K, 4458 kPa	0.0541
375.19 K, 4551 kPa	0.0545
375.19 K, 4557 kPa	0.0538
375.2 K, 4166 kPa	0.0849
375.2 K, 4456 kPa	0.053
375.21 K, 4170 kPa	0.0823
375.21 K, 4171 kPa	0.0814
375.23 K, 4178 kPa	0.0777
375.23 K, 4181 kPa	0.076
375.24 K, 4120 kPa	0.1016
375.24 K, 4189 kPa	0.0731
375.28 K, 4145 kPa	0.0986
375.28 K, 4150 kPa	0.1002
375.28 K, 4156 kPa	0.1002
375.28 K, 4162 kPa	0.0994
375.28 K, 4167 kPa	0.0984
375.28 K, 4208 kPa	0.0667
375.29 K, 4139 kPa	0.0943
375.29 K, 4174 kPa	0.0955
375.3 K, 4089 kPa	0.0573
375.3 K, 4181 kPa	0.0927
375.3 K, 4229 kPa	0.0627
375.31 K, 4189 kPa	0.0889
375.31 K, 4254 kPa	0.0613
375.31 K, 4265 kPa	0.061
375.31 K, 4294 kPa	0.0605
375.31 K, 4307 kPa	0.0603
375.31 K, 4341 kPa	0.06
375.32 K, 4130 kPa	0.0916
375.32 K, 4134 kPa	0.0856
375.32 K, 4197 kPa	0.0848
375.32 K, 4389 kPa	0.0592
375.32 K, 4450 kPa	0.0585
375.32 K, 4490 kPa	0.0588
375.33 K, 4129 kPa	0.087
375.33 K, 4204 kPa	0.0816
375.34 K, 3828 kPa	0.0367
375.34 K, 4085 kPa	0.0517
375.34 K, 4126 kPa	0.0773
375.36 K, 4121 kPa	0.0721
375.36 K, 4216 kPa	0.0746
375.37 K, 4128 kPa	0.0763
375.38 K, 4225 kPa	0.0686
375.39 K, 4235 kPa	0.0668
375.4 K, 4126 kPa	0.0683
375.4 K, 4244 kPa	0.0645
375.42 K, 3349 kPa	0.0298
375.42 K, 4115 kPa	0.0611
375.42 K, 4265 kPa	0.0608
375.43 K, 4051 kPa	0.0425
375.43 K, 4280 kPa	0.0596
375.43 K, 4292 kPa	0.0588
375.45 K, 4349 kPa	0.0567
375.46 K, 4029 kPa	0.0397
375.46 K, 4107 kPa	0.0545
375.46 K, 4118 kPa	0.0591
375.46 K, 4473 kPa	0.0555
375.46 K, 4527 kPa	0.055
375.46 K, 4625 kPa	0.055
375.46 K, 4681 kPa	0.0552
375.46 K, 4735 kPa	0.0582
375.48 K, 4848 kPa	0.0566
375.49 K, 4097 kPa	0.0508
375.51 K, 4107 kPa	0.0521
375.52 K, 4086 kPa	0.0475
375.53 K, 4097 kPa	0.0492
375.56 K, 4055 kPa	0.0434
375.58 K, 4040 kPa	0.0421
375.59 K, 3196 kPa	0.0287
375.6 K, 4065 kPa	0.0432
375.61 K, 3999 kPa	0.0395
375.61 K, 4059 kPa	0.0425
375.63 K, 3965 kPa	0.0378
375.65 K, 4023 kPa	0.0393
375.66 K, 3917 kPa	0.0361
375.69 K, 3874 kPa	0.0343
375.72 K, 4178 kPa	0.0857
375.72 K, 4187 kPa	0.0881
375.73 K, 3772 kPa	0.0319
375.73 K, 4179 kPa	0.083
375.73 K, 4199 kPa	0.0841
375.74 K, 4210 kPa	0.0799
375.76 K, 3000 kPa	0.0274
375.76 K, 3658 kPa	0.0306
375.76 K, 4161 kPa	0.0752
